From ChEMBL document CHEMBL5360622, “Leucettinibs, a Class of DYRK/CLK Kinase Inhibitors Inspired by the Marine Sponge Natural Product Leucettamine B” (J Med Chem, 2023)

Assays:
[1] = target: Dual specificity protein kinase CLK4 (Homo sapiens, UniProt Q9HAZ1)
[2] = target: Glycogen synthase kinase-3 beta (Homo sapiens, UniProt P49841); type: cell-based, Sf9
[3] = target: Cyclin-dependent kinase 5/CDK5 activator 1 (Homo sapiens, UniProt Q00535); type: cell-based, Sf9
[4] = target: T1, Dual specificity tyrosine-phosphorylation-regulated kinase 3 (Homo sapiens, UniProt O43781)
T1 sequence (O43781 whole entry): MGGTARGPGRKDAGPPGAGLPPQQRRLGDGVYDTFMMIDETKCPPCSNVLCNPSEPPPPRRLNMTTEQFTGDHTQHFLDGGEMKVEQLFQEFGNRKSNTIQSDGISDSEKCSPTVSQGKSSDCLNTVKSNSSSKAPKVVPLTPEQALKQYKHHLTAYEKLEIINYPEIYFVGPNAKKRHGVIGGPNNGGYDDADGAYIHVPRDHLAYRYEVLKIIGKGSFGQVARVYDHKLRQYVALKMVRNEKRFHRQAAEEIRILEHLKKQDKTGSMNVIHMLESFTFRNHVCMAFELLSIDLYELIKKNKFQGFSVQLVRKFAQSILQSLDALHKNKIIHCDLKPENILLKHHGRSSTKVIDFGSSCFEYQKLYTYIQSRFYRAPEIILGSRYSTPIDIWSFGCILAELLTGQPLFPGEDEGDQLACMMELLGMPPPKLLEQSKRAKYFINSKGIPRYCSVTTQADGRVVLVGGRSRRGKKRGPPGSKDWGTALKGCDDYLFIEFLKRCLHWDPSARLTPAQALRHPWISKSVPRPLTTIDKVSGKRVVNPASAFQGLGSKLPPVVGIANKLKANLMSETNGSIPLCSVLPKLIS

[5] = target: Dual specificity protein kinase CLK2 (Homo sapiens, UniProt P49760)
Chain of Dual specificity protein kinase CLK2 (P49760 whole entry): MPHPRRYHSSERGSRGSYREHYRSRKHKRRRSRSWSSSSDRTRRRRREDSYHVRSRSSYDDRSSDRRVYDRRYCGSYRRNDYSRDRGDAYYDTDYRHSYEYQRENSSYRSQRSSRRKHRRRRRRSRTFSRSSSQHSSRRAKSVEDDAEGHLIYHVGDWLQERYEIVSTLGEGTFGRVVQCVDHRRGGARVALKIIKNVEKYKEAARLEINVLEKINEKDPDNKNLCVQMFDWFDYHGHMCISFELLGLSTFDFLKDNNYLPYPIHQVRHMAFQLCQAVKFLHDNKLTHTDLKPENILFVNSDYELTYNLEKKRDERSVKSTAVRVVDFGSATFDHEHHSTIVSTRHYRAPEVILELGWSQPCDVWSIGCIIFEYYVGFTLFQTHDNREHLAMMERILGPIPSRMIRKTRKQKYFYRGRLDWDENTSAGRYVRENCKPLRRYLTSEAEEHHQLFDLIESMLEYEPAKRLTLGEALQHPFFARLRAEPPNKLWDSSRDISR

[6] = target: Dual specificity protein kinase CLK3 (Homo sapiens, UniProt P49761); type: cell-based, Sf9
Chain of Dual specificity protein kinase CLK3 (P49761 whole entry): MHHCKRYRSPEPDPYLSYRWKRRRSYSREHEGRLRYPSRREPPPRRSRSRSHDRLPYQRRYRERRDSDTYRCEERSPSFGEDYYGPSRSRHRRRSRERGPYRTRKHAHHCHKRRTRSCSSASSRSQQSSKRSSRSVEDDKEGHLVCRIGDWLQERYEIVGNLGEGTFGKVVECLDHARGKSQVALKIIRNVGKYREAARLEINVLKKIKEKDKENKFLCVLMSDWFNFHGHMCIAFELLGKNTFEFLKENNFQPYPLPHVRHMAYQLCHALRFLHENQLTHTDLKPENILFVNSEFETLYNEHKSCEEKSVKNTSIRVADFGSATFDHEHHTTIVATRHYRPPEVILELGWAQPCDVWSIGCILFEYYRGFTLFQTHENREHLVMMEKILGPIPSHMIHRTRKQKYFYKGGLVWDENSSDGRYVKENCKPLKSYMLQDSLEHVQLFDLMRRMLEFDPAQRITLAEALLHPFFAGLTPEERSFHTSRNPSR

[7] = target: T2, Dual specificity tyrosine-phosphorylation-regulated kinase 4 (Homo sapiens, UniProt Q9NR20)
T2 sequence (Q9NR20 whole entry): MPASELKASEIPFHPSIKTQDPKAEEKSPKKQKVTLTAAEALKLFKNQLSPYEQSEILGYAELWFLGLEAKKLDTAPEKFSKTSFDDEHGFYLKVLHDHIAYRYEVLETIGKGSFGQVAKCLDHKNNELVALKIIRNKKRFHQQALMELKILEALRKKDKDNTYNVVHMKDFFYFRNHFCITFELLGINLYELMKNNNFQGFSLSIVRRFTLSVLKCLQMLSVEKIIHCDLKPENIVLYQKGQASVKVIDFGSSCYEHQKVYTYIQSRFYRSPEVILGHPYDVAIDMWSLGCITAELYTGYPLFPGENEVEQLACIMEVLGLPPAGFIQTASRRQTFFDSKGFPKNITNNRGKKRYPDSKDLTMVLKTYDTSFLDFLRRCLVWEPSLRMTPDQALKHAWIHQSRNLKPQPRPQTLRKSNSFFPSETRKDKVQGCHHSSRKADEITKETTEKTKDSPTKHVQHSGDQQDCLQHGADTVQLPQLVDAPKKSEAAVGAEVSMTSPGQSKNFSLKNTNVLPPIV

[8] = target: Casein kinase I isoform epsilon (Homo sapiens, UniProt P49674)
Chain of Casein kinase I isoform epsilon (P49674 whole entry, canonical isoform): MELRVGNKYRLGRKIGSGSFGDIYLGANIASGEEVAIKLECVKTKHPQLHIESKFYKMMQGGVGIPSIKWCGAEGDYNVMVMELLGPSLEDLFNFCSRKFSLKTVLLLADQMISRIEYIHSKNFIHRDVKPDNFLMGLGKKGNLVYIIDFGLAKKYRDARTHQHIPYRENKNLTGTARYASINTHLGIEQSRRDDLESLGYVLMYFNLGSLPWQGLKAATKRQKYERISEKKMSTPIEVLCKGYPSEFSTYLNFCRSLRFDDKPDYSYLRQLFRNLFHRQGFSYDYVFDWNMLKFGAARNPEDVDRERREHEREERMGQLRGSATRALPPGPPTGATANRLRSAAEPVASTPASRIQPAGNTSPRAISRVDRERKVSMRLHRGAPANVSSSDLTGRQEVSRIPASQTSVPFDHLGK

[9] = target: T3, Dual specificity tyrosine-phosphorylation-regulated kinase 2 (Homo sapiens, UniProt Q92630)
T3 sequence (Q92630 whole entry): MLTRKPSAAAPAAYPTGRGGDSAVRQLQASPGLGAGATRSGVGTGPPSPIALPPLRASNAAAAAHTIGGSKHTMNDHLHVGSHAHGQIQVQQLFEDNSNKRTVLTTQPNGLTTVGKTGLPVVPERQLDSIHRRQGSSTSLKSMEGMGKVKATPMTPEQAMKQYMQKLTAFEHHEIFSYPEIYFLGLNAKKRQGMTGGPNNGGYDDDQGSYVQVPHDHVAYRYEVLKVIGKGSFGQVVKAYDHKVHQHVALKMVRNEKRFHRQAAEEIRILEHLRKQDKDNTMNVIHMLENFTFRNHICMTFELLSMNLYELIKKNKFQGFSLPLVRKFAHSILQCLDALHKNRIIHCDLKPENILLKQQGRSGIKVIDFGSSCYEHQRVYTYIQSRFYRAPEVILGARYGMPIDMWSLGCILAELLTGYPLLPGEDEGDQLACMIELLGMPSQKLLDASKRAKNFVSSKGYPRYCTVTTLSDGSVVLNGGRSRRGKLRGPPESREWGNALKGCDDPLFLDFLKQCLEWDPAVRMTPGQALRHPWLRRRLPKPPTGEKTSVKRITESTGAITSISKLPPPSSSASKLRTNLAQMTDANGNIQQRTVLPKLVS

[10] = target: Dual specificity protein kinase CLK1 (Homo sapiens, UniProt P49759); type: cell-based, Sf9
Chain of Dual specificity protein kinase CLK1 (P49759 whole entry): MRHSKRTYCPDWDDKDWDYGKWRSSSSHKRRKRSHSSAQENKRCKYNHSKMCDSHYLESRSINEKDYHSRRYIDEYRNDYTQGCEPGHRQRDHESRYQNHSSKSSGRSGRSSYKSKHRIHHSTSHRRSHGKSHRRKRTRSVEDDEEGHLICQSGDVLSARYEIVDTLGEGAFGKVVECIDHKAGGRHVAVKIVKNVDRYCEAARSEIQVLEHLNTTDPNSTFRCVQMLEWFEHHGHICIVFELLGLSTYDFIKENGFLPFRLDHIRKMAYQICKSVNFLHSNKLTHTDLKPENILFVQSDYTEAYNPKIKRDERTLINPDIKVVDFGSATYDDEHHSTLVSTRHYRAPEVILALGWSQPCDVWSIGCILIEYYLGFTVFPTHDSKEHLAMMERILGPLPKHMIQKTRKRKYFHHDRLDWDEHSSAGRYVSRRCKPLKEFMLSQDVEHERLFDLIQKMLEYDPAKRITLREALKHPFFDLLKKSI

Chain of Cyclin-dependent kinase 5/CDK5 activator 1 (Q00535 whole entry): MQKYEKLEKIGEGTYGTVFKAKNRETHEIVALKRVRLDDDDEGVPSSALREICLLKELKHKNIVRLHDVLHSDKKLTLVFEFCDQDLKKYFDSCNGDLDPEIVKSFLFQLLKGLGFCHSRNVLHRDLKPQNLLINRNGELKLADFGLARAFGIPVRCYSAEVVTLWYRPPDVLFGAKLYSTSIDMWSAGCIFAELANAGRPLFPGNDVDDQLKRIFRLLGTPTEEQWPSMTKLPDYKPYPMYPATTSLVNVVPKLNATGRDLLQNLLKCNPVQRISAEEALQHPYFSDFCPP
Chain of Cyclin-dependent kinase 5/CDK5 activator 1 (Q15078 whole entry, further chain): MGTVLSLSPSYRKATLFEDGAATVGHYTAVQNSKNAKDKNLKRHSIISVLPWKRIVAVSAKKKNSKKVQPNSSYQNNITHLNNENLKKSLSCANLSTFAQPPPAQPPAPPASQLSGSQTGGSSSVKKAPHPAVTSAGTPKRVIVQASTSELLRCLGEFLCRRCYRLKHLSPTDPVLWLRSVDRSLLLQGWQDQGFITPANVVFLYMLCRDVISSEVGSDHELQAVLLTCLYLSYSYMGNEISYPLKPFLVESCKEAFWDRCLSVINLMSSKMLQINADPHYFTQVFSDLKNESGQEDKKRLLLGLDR
Chain of Dual specificity protein kinase CLK4 (Q9HAZ1 whole entry): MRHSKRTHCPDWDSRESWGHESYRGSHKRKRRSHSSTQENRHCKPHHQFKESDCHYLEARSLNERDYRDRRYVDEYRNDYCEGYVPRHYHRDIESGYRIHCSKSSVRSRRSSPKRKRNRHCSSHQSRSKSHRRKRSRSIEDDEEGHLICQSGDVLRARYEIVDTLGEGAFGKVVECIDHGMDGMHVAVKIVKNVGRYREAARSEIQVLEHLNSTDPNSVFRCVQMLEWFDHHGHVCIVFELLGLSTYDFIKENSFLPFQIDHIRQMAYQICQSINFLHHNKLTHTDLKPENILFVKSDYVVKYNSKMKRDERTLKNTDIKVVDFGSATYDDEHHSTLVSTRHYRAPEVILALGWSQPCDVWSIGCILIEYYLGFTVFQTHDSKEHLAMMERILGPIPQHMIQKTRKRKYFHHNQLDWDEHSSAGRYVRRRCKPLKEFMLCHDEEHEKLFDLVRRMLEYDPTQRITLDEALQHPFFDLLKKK
Chain of Glycogen synthase kinase-3 beta (P49841 whole entry): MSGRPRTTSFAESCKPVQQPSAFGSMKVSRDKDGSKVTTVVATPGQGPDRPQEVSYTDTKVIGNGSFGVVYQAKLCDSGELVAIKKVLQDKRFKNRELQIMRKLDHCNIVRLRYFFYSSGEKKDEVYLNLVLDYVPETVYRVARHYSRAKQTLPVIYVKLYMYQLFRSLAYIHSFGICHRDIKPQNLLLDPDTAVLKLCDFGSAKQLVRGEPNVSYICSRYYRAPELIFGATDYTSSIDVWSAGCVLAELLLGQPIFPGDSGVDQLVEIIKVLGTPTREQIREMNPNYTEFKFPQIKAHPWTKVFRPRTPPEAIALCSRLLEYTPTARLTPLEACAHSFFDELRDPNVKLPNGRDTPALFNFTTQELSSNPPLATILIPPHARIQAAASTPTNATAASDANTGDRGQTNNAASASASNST

IC50 [1]	IC50 [2]	IC50 [3]	IC50 [4]	IC50 [5]	IC50 [6]	IC50 [7]	IC50 [8]	IC50 [9]	IC50 [10]	SMILES
0.014 µM	5.92 µM	> 10 µM	1.43 µM	0.614 µM	0.491 µM	2.16 µM	> 10 µM	0.574 µM		O=C1NC(NC2COC2)=N/C1=C\c1ccc2ncsc2c1
	> 10 µM	> 10 µM				4.32 µM		0.417 µM	0.012 µM	O=C1NC(NC[C@H](O)c2ccccc2)=N/C1=C\c1ccc2ncsc2c1
0.073 µM	3.68 µM	> 10 µM	4.05 µM	0.698 µM	1.55 µM	4.82 µM	> 10 µM	5.63 µM		Cn1ncc2cccc(NC3=N/C(=C\c4ccc5ncsc5c4)C(=O)N3)c21
0.013 µM	2.15 µM	6.11 µM	1.64 µM	0.086 µM	0.28 µM	1.94 µM	> 10 µM	1.21 µM		O=C1NC(NCc2ccccc2)=N/C1=C\c1ccc2ncsc2c1
0.033 µM	> 10 µM	> 10 µM	2.56 µM	1.03 µM	1.15 µM	3.12 µM	> 10 µM	1.66 µM		O=C1NC(NC2CCNC2=O)=N/C1=C\c1ccc2ncsc2c1 (racemic)
0.012 µM	4.25 µM	> 10 µM	2.38 µM	0.099 µM	0.808 µM	0.374 µM	> 10 µM	0.4 µM		COCC(Cc1ccccc1)NC1=N/C(=C\c2ccc3ncsc3c2)C(=O)N1 (stereo not drawn)
4.93 µM	> 10 µM	> 10 µM	> 10 µM	> 10 µM	> 10 µM	> 10 µM	> 10 µM	> 10 µM		O=C1NC(Nc2ccc(N3CCOCC3)cc2)=N/C1=C\c1ccc2ncsc2c1
0.011 µM	> 10 µM	> 10 µM	0.223 µM	0.017 µM	0.738 µM	0.221 µM	> 10 µM	0.176 µM		CC1(C)C2CCC1(C)[C@H](NC1=N/C(=C\c3ccc4ncsc4c3)C(=O)N1)C2 (stereo partly drawn)
	> 10 µM	> 10 µM			> 10 µM	6.82 µM	> 10 µM	8.38 µM	0.122 µM	COC(=O)[C@@H](Cc1ccccc1)NC1=N/C(=C\c2ccc3ncsc3c2)C(=O)N1
	9.97 µM	> 10 µM		0.121 µM	2.1 µM		> 10 µM	1.72 µM	0.018 µM	CC(C)(C)OC[C@H](NC1=N/C(=C\c2ccc3ncsc3c2)C(=O)N1)c1ccccc1
	8.24 µM	> 10 µM	0.56 µM		0.791 µM		> 10 µM	0.328 µM	0.016 µM	COC(=O)[C@@H](NC1=N/C(=C\c2ccc3ncsc3c2)C(=O)N1)C(C)C
0.104 µM	6.77 µM	> 10 µM	1.5 µM	0.59 µM	4.12 µM	8.73 µM	> 10 µM	> 10 µM		CN(C)CC(NC1=N/C(=C\c2ccc3ncsc3c2)C(=O)N1)c1ccccc1 (racemic)
	2.6 µM	> 10 µM				0.181 µM		0.016 µM	0.013 µM	O=C1NC(NC[C@@H](O)c2ccccc2)=N/C1=C\c1ccc2ncsc2c1
